The target of this test is T1, human FPTase (Homo sapiens, UniProt P49354+P49356).
T1 construct: made in house
In words: In vitro inhibition of human farnesyl-protein transferase ([3H]-FPP incorporation into Ras-CVIM). The following applies: 100 nM Ras-CVIM, 30 min, read-out: IC50, inhibitory activity against human FPTase. The class given is biochemical.

The structures appear in SMILES notation.

By IC50 is commonly meant the point on the concentration scale where inhibition reaches its midpoint. Regarding `COC1OC(OC)c2c1cc(O)c1c2O[C@@]2(C)CC[C@H]3C(C)(C)[C@@H](OC(C)=O)CC[C@]3(C)[C@H]2C1` (some centres unmarked) [Compound I], the half-maximal inhibitory concentration (IC50) was under 20 µM.
In the case of `CC(=O)O[C@H]1CC[C@]2(C)[C@H]3Cc4c(O)cc5c(c4O[C@@]3(C)CC[C@H]2C1(C)C)COC5=O` [Compound II] it was under 20 µM.
